Assays:
[1] = target: T1, Tyrosine-protein kinase ABL1 (Homo sapiens, UniProt P00519); details: at 20 µM
[2] = target: T1, Tyrosine-protein kinase ABL1; details: at 20 µM; remark: listed apart in the source
[3] = target: Tyrosine-protein kinase JAK1 (Homo sapiens, UniProt P23458); details: at 1 µM
[4] = target: Atypical kinase COQ8B, mitochondrial (Homo sapiens) (UniProt Q96D53); assay: Selectivity interaction (KinomeScan (DiscoverX)) EUB0000740a ADCK4; details: at 1 µM
Aurora kinase B = Aurora kinase B (Homo sapiens, UniProt Q96GD4); assay: Selectivity interaction (KinomeScan (DiscoverX)) EUB0000740a AURKB; details: at 1 µM
[5] = target: Ephrin type-A receptor 5 (Homo sapiens) (UniProt P54756); assay: Selectivity interaction (KinomeScan (DiscoverX)) EUB0000740a EPHA5; details: at 1 µM
[6] = target: T2, Serine/threonine-protein kinase LATS2 (Homo sapiens) (UniProt Q9NRM7); assay: Selectivity interaction (KinomeScan (DiscoverX)) EUB0000740a LATS2; details: at 1 µM
T2 sequence (whole entry): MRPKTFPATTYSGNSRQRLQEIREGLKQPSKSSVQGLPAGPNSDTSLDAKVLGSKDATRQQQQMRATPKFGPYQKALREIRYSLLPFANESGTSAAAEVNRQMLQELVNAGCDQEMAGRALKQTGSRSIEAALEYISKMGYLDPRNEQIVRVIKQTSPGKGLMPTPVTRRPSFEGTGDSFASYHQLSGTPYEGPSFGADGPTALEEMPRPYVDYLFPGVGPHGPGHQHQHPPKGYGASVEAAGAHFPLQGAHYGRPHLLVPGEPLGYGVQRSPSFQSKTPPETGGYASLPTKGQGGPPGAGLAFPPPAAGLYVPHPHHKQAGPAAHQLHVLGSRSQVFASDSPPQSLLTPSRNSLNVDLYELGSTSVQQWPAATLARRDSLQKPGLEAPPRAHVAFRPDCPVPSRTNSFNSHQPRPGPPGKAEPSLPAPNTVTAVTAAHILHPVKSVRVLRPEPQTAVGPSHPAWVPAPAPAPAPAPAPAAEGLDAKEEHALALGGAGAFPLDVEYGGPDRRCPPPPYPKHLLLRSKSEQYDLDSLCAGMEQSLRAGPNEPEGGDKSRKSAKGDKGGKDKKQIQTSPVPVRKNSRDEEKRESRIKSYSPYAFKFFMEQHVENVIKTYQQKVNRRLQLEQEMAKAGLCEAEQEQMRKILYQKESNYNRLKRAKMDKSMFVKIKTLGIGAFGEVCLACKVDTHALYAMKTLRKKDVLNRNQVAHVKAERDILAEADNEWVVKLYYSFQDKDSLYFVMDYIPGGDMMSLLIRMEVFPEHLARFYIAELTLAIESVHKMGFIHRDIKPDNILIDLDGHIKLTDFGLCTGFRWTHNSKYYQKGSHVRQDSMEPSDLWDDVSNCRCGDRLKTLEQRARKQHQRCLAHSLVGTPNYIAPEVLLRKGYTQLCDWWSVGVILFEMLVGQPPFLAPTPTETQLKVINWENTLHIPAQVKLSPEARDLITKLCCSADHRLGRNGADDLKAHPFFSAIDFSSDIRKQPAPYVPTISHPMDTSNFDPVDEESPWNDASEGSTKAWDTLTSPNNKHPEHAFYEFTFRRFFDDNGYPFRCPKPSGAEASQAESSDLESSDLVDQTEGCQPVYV

[7] = target: Ribosomal protein S6 kinase alpha-6 (Homo sapiens) (UniProt Q9UK32); assay: Selectivity interaction (KinomeScan (DiscoverX)) EUB0000586a RPS6KA6; details: at 1 µM
Ribosomal protein S6 kinase alpha-6 (Homo sapiens), sequence (Q9UK32 whole entry): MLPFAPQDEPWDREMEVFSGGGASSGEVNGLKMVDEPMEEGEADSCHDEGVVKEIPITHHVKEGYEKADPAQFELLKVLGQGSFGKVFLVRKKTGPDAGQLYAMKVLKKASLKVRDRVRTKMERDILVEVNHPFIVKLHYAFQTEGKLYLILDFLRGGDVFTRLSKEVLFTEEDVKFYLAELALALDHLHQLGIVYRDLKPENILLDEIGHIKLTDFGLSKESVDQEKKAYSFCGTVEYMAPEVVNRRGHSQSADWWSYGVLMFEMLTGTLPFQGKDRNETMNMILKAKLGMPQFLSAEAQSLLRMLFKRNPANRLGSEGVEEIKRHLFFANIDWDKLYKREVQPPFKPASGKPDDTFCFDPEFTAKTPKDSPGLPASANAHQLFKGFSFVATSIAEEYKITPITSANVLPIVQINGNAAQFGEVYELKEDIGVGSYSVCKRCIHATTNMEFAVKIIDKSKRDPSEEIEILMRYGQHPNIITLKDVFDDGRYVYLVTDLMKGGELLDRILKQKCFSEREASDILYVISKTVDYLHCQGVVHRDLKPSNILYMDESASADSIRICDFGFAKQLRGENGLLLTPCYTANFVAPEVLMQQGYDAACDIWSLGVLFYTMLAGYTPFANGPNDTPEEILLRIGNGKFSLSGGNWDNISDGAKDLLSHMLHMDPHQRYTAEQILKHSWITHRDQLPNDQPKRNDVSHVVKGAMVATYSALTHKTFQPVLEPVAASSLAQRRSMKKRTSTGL

D(1B) dopamine receptor [8] = target: T3, D(1B) dopamine receptor (Homo sapiens, UniProt P21918); assay: Selectivity interaction (GPCR panel (PDSP screen)) EUB0000586a DRD5; details: at 10 µM
T3 sequence (P21918 whole entry): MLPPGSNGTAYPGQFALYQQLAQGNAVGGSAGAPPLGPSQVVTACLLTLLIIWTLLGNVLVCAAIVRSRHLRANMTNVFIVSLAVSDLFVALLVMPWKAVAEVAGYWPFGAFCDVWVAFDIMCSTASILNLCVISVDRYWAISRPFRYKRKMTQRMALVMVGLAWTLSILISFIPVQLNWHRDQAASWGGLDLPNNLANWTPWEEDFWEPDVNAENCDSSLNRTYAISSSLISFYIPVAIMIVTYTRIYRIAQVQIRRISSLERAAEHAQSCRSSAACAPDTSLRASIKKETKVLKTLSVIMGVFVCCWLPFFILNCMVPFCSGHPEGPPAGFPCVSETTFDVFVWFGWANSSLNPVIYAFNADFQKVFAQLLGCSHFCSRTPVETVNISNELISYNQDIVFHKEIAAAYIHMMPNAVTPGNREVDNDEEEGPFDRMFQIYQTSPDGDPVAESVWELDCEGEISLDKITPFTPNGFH

[9] = target: Kappa-type opioid receptor (Homo sapiens, UniProt P41145); assay: Selectivity interaction (GPCR panel (PDSP screen)) EUB0000586a OPRK1; details: at 10 µM
Kappa-type opioid receptor, sequence (P41145 whole entry): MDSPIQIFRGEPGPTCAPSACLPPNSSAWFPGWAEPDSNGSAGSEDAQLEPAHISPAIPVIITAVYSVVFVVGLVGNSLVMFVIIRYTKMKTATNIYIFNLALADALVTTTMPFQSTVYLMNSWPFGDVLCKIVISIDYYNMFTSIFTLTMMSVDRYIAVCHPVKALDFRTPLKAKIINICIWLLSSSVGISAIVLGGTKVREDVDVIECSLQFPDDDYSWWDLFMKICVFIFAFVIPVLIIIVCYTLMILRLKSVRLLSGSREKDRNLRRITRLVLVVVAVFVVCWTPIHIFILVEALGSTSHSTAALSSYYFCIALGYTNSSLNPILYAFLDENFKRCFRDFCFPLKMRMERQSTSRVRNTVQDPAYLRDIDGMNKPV

[10] = target: Death-associated protein kinase 1 (Homo sapiens) (UniProt P53355); assay: Selectivity interaction (KinomeScan (DiscoverX)) EUB0000586a DAPK1; details: at 1 µM
[11] = target: Serine/threonine-protein kinase tousled-like 1 (Homo sapiens) (UniProt Q9UKI8); assay: Selectivity interaction (KinomeScan (DiscoverX)) EUB0000586a TLK1; details: at 1 µM
[12] = target: Serine/threonine-protein kinase 24 (Homo sapiens) (UniProt Q9Y6E0); assay: Selectivity interaction (KinomeScan (DiscoverX)) EUB0000586a STK24; details: at 1 µM
[13] = target: 5-hydroxytryptamine receptor 3A (Homo sapiens) (UniProt P46098); assay: Selectivity interaction (GPCR panel (PDSP screen)) EUB0000586a HTR3A; details: at 10 µM
[14] = target: T4, Serine/threonine-protein kinase 38-like (Homo sapiens, UniProt Q9Y2H1); assay: Selectivity interaction (KinomeScan (DiscoverX)) EUB0000586a STK38L; details: at 1 µM
T4 sequence (Q9Y2H1 2-464 limits assumed): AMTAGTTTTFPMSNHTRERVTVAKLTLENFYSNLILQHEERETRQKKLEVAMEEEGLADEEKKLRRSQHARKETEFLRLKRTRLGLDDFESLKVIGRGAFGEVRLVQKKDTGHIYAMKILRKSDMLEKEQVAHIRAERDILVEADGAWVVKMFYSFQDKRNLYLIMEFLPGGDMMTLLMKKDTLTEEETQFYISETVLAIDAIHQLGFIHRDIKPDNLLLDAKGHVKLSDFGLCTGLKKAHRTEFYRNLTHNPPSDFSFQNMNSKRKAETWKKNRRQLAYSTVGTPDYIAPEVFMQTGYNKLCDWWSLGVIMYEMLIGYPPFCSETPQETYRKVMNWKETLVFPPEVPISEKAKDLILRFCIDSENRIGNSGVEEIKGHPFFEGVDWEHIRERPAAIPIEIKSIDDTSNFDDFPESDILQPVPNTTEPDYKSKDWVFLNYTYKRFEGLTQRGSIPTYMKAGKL

[15] = target: Ribosomal protein S6 kinase alpha-1 (Homo sapiens) (UniProt Q15418); assay: Selectivity interaction (KinomeScan (DiscoverX)) EUB0000586a RPS6KA1; details: at 1 µM
Ribosomal protein S6 kinase alpha-1 (Homo sapiens), sequence (Q15418 whole entry, looked up): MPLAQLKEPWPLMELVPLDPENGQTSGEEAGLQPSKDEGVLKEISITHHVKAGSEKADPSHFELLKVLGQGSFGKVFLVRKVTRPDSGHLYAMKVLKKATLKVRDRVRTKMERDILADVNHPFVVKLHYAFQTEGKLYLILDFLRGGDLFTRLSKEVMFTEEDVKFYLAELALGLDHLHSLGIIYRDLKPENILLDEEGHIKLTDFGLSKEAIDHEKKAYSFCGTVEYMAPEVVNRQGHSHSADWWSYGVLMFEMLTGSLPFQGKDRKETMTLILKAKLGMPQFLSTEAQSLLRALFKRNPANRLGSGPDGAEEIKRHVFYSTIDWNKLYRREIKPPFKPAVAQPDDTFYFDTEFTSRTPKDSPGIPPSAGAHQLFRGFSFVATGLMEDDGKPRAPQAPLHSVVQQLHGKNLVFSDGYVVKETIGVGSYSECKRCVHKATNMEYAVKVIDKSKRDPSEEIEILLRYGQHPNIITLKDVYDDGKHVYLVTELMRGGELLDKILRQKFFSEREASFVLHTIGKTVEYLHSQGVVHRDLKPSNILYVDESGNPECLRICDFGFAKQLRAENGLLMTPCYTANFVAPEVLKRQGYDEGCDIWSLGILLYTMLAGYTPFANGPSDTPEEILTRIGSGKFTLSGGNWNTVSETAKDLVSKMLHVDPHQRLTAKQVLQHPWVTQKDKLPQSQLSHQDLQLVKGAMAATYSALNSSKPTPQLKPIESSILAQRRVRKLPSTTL

[16] = target: Ribosomal protein S6 kinase alpha-2 (Homo sapiens) (UniProt Q15349); assay: Selectivity interaction (KinomeScan (DiscoverX)) EUB0000586a RPS6KA2; details: at 1 µM
[17] = target: 5-hydroxytryptamine receptor 1B (Homo sapiens) (UniProt P28222); assay: Selectivity interaction (GPCR panel (PDSP screen)) EUB0000343a HTR1B; details: at 10 µM
[18] = target: Serine/threonine-protein kinase Nek1 (Homo sapiens) (UniProt Q96PY6); assay: Selectivity interaction (KinomeScan (DiscoverX)) EUB0000343a NEK1; details: at 1 µM
[19] = target: T5, Phosphatidylinositol 5-phosphate 4-kinase type-2 gamma (Homo sapiens) (UniProt Q8TBX8); assay: Selectivity interaction (KinomeScan (DiscoverX)) EUB0000343a PIP4K2C; details: at 1 µM
T5 sequence (whole entry): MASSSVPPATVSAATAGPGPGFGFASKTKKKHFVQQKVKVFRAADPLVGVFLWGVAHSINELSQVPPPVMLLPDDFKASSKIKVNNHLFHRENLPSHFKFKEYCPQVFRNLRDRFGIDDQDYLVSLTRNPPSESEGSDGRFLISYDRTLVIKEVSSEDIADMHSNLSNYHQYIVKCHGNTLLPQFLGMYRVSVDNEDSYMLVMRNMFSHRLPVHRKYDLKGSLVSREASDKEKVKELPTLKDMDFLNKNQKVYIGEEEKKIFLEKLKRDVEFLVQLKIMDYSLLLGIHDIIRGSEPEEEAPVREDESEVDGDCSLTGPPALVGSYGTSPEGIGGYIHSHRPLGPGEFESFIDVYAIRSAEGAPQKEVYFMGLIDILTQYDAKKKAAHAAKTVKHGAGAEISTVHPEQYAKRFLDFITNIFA

[20] = target: Beta-1 adrenergic receptor (Homo sapiens) (UniProt P08588); assay: Selectivity interaction (Eurofins-Panlabs panel (at Boehringer Ingelheim)) EUB0000314b ADRB1; details: at 10 µM
Beta-1 adrenergic receptor (Homo sapiens), sequence (P08588 whole entry, looked up): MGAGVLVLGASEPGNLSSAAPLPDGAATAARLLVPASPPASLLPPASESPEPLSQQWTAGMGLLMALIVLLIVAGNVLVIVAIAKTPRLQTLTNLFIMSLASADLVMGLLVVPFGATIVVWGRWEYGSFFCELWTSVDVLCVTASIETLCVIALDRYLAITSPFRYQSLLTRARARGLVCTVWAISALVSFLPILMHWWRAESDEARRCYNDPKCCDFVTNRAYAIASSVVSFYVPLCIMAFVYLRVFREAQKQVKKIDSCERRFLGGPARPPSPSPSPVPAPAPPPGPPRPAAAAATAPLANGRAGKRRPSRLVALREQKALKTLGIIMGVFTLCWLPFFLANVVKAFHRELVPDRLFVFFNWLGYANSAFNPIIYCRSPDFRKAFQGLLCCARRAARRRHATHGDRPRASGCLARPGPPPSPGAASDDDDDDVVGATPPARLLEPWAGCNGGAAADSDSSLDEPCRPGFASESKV

D(1B) dopamine receptor [21] = target: T3, D(1B) dopamine receptor; assay: Selectivity interaction (GPCR panel (PDSP screen)) EUB0000314b DRD5; details: at 10 µM
[22] = target: Gamma-aminobutyric acid receptor subunit beta-2 (Homo sapiens) (UniProt P47870); assay: Selectivity interaction (Eurofins-Panlabs panel (at Boehringer Ingelheim)) EUB0000314b GABRB2; details: at 10 µM
Gamma-aminobutyric acid receptor subunit beta-2 (Homo sapiens), sequence (P47870 whole entry): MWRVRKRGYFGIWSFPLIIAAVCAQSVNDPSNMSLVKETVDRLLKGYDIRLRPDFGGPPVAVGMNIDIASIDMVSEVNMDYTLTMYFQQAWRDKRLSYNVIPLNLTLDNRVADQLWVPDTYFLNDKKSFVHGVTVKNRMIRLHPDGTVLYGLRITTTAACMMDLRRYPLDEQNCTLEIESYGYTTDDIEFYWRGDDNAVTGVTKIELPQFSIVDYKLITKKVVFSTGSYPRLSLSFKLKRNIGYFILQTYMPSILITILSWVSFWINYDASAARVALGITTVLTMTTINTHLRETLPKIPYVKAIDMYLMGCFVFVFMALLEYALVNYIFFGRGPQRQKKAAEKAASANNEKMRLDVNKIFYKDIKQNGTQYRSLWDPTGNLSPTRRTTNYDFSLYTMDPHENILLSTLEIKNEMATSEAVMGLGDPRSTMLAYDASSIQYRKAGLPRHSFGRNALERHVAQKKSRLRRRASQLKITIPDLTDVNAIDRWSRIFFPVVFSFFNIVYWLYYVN

[23] = target: T2, Serine/threonine-protein kinase LATS2 (Homo sapiens); assay: Selectivity interaction (KinomeScan (DiscoverX)) EUB0000314b LATS2; details: at 1 µM
[24] = target: Transient receptor potential cation channel subfamily M member 6 (Homo sapiens) (UniProt Q9BX84); assay: Selectivity interaction (KinomeScan (DiscoverX)) EUB0000549a TRPM6; details: at 1 µM
[25] = target: Serine/threonine-protein kinase Nek4 (Homo sapiens) (UniProt P51957); assay: Selectivity interaction (KinomeScan (DiscoverX)) EUB0000549a NEK4; details: at 1 µM
[26] = target: T6, Cytoplasmic tyrosine-protein kinase BMX (Homo sapiens) (UniProt P51813); assay: Selectivity interaction (KinomeScan (DiscoverX)) EUB0000549a BMX; details: at 1 µM
T6 sequence (whole entry): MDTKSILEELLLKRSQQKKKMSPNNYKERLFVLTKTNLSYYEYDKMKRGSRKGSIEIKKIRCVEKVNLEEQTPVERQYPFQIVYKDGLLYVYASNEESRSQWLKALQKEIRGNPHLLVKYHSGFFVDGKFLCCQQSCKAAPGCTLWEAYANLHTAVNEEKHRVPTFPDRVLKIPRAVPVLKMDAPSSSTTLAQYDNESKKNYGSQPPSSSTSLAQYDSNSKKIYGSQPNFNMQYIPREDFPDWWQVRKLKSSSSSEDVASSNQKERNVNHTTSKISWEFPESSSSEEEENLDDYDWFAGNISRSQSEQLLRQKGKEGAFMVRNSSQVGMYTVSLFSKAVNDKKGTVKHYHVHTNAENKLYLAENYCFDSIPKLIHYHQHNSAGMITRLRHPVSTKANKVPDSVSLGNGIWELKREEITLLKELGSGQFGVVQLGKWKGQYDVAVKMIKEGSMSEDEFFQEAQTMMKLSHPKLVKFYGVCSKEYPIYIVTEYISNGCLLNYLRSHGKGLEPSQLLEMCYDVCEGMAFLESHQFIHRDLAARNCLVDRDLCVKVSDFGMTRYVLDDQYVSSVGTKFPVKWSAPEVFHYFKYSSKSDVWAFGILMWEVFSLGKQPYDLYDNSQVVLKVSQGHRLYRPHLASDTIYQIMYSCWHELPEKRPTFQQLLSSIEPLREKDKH

[27] = target: T4, Serine/threonine-protein kinase 38-like; assay: Selectivity interaction (KinomeScan (DiscoverX)) EUB0000549a STK38L; details: at 1 µM
[28] = target: Sodium-dependent dopamine transporter (Homo sapiens, UniProt Q01959); assay: Selectivity interaction (Eurofins-Panlabs screen (receptors)) EUB0000352a SLC6A3; details: at 10 µM
[29] = target: Leucine-rich repeat serine/threonine-protein kinase 2 (Homo sapiens, UniProt Q5S007); assay: Selectivity interaction (KinomeScan (DiscoverX)) EUB0000352a LRRK2; details: at 1 µM
[30] = target: T4, Serine/threonine-protein kinase 38-like; assay: Selectivity interaction (KinomeScan (DiscoverX)) EUB0000352a STK38L; details: at 1 µM

T1 sequence (P00519 whole entry): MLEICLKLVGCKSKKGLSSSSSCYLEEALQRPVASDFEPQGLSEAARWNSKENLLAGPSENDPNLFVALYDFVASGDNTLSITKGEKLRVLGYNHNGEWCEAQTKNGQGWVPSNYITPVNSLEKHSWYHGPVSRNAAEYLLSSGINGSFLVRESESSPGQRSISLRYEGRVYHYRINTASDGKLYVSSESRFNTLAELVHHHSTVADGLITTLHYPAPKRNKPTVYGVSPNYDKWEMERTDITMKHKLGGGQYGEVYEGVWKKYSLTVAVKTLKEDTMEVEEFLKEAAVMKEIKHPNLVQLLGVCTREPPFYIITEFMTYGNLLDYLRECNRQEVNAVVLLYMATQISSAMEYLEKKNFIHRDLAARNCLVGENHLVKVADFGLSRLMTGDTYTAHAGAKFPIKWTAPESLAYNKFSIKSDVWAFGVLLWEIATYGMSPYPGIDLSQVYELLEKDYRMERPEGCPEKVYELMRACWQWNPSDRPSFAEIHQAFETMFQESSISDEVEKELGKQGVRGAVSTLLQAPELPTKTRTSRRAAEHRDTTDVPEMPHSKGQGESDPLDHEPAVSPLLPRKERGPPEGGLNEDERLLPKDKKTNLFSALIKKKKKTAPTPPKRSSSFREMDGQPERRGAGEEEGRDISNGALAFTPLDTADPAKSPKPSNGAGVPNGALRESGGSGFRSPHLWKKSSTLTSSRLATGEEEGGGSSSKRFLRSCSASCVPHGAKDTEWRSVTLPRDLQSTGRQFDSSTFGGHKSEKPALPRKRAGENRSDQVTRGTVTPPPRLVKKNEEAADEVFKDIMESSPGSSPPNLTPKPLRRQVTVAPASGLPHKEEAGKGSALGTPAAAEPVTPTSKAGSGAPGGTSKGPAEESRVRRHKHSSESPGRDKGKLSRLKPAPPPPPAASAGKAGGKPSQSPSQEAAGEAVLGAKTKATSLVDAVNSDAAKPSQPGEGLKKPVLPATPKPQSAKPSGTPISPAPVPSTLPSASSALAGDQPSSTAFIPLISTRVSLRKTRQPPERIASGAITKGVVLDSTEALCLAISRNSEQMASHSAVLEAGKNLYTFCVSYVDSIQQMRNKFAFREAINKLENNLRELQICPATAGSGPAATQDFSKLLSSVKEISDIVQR

CN(C)C(=O)Cn1cc(-c2nc([C@@](C)(c3ccc(-c4cnc(N)nc4)cc3)C3CC3)no2)cn1
% of inhibition [1]: 67%
% of control [2]: 33%
% of control [3]: 33%

CN(C)C(=O)Cn1cc(-c2nc(C3(c4ccc(-c5cnc(N)nc5)cc4)CC3)no2)cn1
% of control [4]: 44%
% of control (Aurora kinase B): 41%
% of control [5]: 41%
% of control [6]: 46%

CCS(=O)(=O)c1cc2cc(C[C@@](O)(CC(C)(C)c3ccc(F)cc3C(N)=O)C(F)(F)F)[nH]c2cn1
% of control [7]: 0%
% of inhibition (D(1B) dopamine receptor [8]): 32%
% of inhibition [9]: 28%
% of control [10]: 0%
% of control [11]: 0%
% of control [12]: 0%
% of inhibition [13]: 21%
% of control [14]: 38%
% of control [15]: 0%
% of control [16]: 0%

CS(=O)(=O)NCC[C@H](NC(=O)c1cncc2c1cnn2-c1ccc(F)cc1)c1ccnc(S(C)(=O)=O)c1
% of inhibition [17]: 47.7%
% of control [18]: 45%
% of control [19]: 0%

CCS(=O)(=O)c1cc2cc(C[C@](O)(CC(C)(C)c3ccc(F)cc3C(N)=O)C(F)(F)F)[nH]c2cn1
% of control [20]: 75%
% of inhibition (D(1B) dopamine receptor [21]): 34%
% of control [22]: 75%
% of control [23]: 40%

C[C@@]1(Cc2ccc(C#N)cc2)C(=O)N(c2cc(Cl)cc(Cl)c2)c2ncc(C(=O)NC3(c4nc(C5CCC5)no4)CC3)n21
% of control [24]: 0%
% of control [25]: 12%
% of control [26]: 40%
% of control [27]: 48%

CS(=O)(=O)c1cc(C2(NC(=O)c3cncc4c3cnn4-c3ccc(F)cc3)CC2)ccn1
% of inhibition [28]: 71%
% of control [29]: 43%
% of control [30]: 34%

Reference: ChEMBL document CHEMBL5212743, “Selectivity Literature for EUbOPEN Chemogenomics Library wave 3” (2023)
